Data taken from patent EP0452507A1, “MEDICINE COMPRISING TOCOPHERYL GLYCOSIDE AS ACTIVE INGREDIENT” (NIPPON HYPOX LABORATORIES INCORPORATED, priority 1989, dated 1991).

Assays:
[1] = tested on: stomach (mucosal ulcer in the glandular portion); type: in vivo, rats
Method: 15 male SD rats weighing 180 to 220 g were used. These rats were fasted for 24 hours, and separated to three groups each consisting of 5 rats.
Then, one group was used as Control group. A physiological saline solution of 10 % Nikkol was administered intraperitoneally, and the rats were sacrificed with ether 16 hours after the administration. The stomach of each rat was removed, and after 10 ml of physiological saline was injected into the stomachs, the stomachs were fixed by immersing them in a 1 % formalin for 10 minutes. Each stomach was dissected along the greater curvatura, and the length (mm) of mucosal ulcer which occurred in the glandular portion was measured under an anatomical microscope (x 10). The average of the ulcer lengths of the five rats was taken as an ulcer index.
One out of the remaining two groups was used as Example group @. The procedure for Control group was repeated except that a physiological saline solution of 10 % Nikkol containing VIE-MAN in place of the physiological saline solution of 10 % Nikkol was administered intraperitoneally in such a dose that the amount of VIE-MAN was 300 mg/kg, and the ulcer index was determined.
The remaining one group was used as Comparative Example group ⓘ. The procedure for Example group 17 was repeated except that a physiological saline solution of 10 % Nikkol containing indomethacin, which was a nonsteroidal anti-inflammatory preparation (antipyretic analgesic antiphlogistic preparation), in place of the physiological saline solution of 10 % Nikkol was administered intraperitoneally in such a dose that the amount of the indomethacin was 20 mg/kg, and the ulcer index was determined.

[2] = tested on: antigen-adjuvant-induced inflammation; assay: antigen-adjuvant-induced inflammation, right hind paw swelling by volumetry; type: in vivo, rats; conditions: for inhibition activity against antigen-adjuvant-induced inflammations / average of the swelling ratios: 10 mg/kg intraperitoneally; for average of the swelling ratios: 0.5 hour after administration of antigen and adjuvant, versus Control group
Method: (§1) At first, five groups each consisting of five SD male rats weighing 180 to 220 g (total 25 rats) were prepared, and each rat was measured for a size of the subplantar region of the right hind paw. As an antigen to cause an antigen-adjuvant-induced inflammation, 0.2 mg/rat of egg-white albumin was used. Further, as an immune aid (adjuvant), a mixture consisting of 4 mg/rat of aluminum hydroxide and 0.1 ml/rat of pertussis vaccine was prepared.
One out of the five groups was used as Control group. A physiological saline solution of 10 % Nikkol (trade name, dissolving aid, supplied by Nikko Chemical Co., Ltd.) was administered intraperitoneally to each rat, and 0.5 hour after the administration of the physiological saline solution of 10 % Nikkol, the above antigen and adjuvant were administered intracutaneously into the subplantar region of the right hind paw. Then, 0.5, 1, 2, 4, 6, 12 and 24 hours after the administration of the antigen and adjuvant, the swelling on the subplantar region of the right hind paw of each rat was measured by volumetry. And, the average of swelling ratios of the group in every measurement was determined on the basis of the measurement values of the sizes of subplantar regions of the right hind paws of the rats obtained before the administration of the physiological saline solution of 10 % Nikkol.
One of the remaining four groups was used as Example group @. A physiological saline solution of 10 % Nikkol containing VIE-MAN was administered intraperitoneally into each rat of this group in such a dose that the amount of VIE-MAN was 10 mg/kg, and 0.5 hours after the administration of the physiological saline solution of 10 % Nikkol containing VIE-MAN, the above antigen and adjuvant were administered intracutaneously into the subplantar region of the right hind paw. Thereafter, the swelling on the subplantar region of the right hind paw of each rat was measured in the same manner as that for Control group, and the average of swelling ratios of the group in every measurement was determined.
(§2) The same procedure as that for Example group ⑧ was carried out except that a physiological saline solution of 10 % Nikkol containing hydrocortisone which was an anti-inflammatory preparation (immunosuppressive preparation) in place of the physiological saline solution of 10 % Nikkol containing VIE-MAN was administered intraperitoneally in such a dose that the amount of the hydrocortisone was 10 mg/kg.
as §2, with “diphenhydramine” for “hydrocortisone”, “antihistamine” for “anti-inflammatory”, “preparation” for “preparation (immunosuppressive preparation)”
as §2, with “containing indomethacin” for “containing hydrocortisone”, “was a nonsteroidal” for “was an”, “preparation (antipyretic analgesic antiphlogistic” for “preparation (immunosuppressive”, “the indomethacin” for “the hydrocortisone”
as §1, with “first, four” for “first, five”, “five male” for “five”, “SD” for “SD male”, “(total 20” for “(total 25”, “an antigen- adjuvant-induced” for “an antigen-adjuvant-induced”, “was prepared.” for “was used.”
One out of the four groups was used an Control group, and the procedure for Control group in Example 4 was repeated to determine the average of the swelling ratios as a group unit.

Compound	side effect on the digestive system ([1]; rat, in vivo)	inhibition activity against antigen-adjuvant-induced inflammations ([2]; Example 5, Fig. 4, 10 mg/kg)	average of the swelling ratios ([2]; Example 5, Fig. 4)	mucosal ulcer (ulcer index) ([1]; rat, in vivo, ip, 300 mg/kg)	inhibition activity against antigen-adjuvant-induced inflammations ([2]; Example 4, Fig. 3)	average of the swelling ratios ([2]; Example 4, Fig. 3)	ulcer index ([1]; Example 8, Fig. 7, 20 mg/kg intraperitoneally, fasted rats, 16 hours after administration)	inhibition activity against antigen-adjuvant-induced inflammation compared with VIE-MAN ([2]; Example 4, Fig. 3, both 10 mg/kg intraperitoneally)
Cc1c(C)c2c(c(C)c1OC1OC(CO)C(O)C(O)C1O)CCC(C)(CCCC(C)CCCC(C)CCCC(C)C)O2 (racemic) [VIE-GLU, dl-α-tocopheryl-,8-D-glucoside]	nearly similar results to that of the test on VIE-MAN	almost as superior as VIE-MAN	significantly lower than that of the swelling ratios of Control group	–	–	–	–	–
Cc1c(C)c2c(c(C)c1OC1OC(CO)C(O)C(O)C1O)CCC(C)(CCCC(C)CCCC(C)CCCC(C)C)O2 (racemic) [VIE-MAN, dl-a-tocopheryl-a-D-mannoside]	–	–	–	no mucosal ulcer was observed	excellent inhibition activity	significantly lower than that of the swelling ratios of Control group	–	–
COc1ccc2c(c1)c(CC(=O)O)c(C)n2C(=O)c1ccc(Cl)cc1 [indomethacin, reference compound]	–	–	–	–	significant inhibition activity at and after 2 hours	–	about 30 mm	much lower than that of VIE-MAN
